# Reference: patent publication US8524809B2, “Low odor compositions and methods to attain low odor compositions” (Rohm and Haas Company, priority 2010, dated 2013)
# Key:
# [1] = Esterase and nucleophilic reagent, larger scale vinyl acetate-acrylic latex; conditions: VAc-acrylic latex, 50 ppm N51032 + 50 ppm reagent
# Procedure: The combined effect of carboxylesterase (50 ppm N51032) and nucleophilic reagent (50 ppm in each case) was evaluated in a larger scale vinyl acetate-acrylic latex sample, Table 27, below. The combined addition was made into a 1 gallon reaction vessel, with stirring, after the polymer synthesis and chase, and while the contents were at 50° C. The contents were then allowed to cool and headspace concentrations were analyzed after 1 day at room temperature, and after 5 days at room temperature.
# [2] = Nucleophilic reagents: aldehyde content in vinyl acetate-acrylic latex; conditions: Rovace 9900 pre-treated 1 week with 50 ppm N51032; reagent 50 ppm, 55° C. 2 hours, then 1 week RT
# Procedure: The latex samples were first treated with a carboxylesterase enzyme (50 ppm of N51032) for 1 week to remove residual esters and also to convert residual vinyl acetate to acetaldehyde (the esterase produces vinyl alcohol, which rearranges to form acetaldehyde). Each sample was then stirred at 55° C. for 2 hours with the reagent shown below in Table 26 (added at a level of 50 ppm), and then left at room temperature for 1 week before evaluating levels of aldehyde in the headspace composition (GC-MS, 33° C.).
# [3] = NaBH4 treatment: headspace composition of acrylic latex AC261; conditions: 1 week, 500 ppm NaBH4 (with 60 ppm CALBL where combined)
# Procedure: Headspace VOC content in aqueous compositions was determined by a method based on ASTM 3960: Standard Practice for Determining Volatile Organic Compound (VOC) Content of Paints and Related Coatings. This method uses static headspace sampling/GC-MS at 33° C. to determine the headspace concentrations of compounds above aqueous emulsion polymers or waterborne paints.
# Weigh 5 g of each sample into 22 ml headspace vials with aluminum caps and crimp the cap tightly. Repeat the procedure with water blanks to be run, at a minimum, at the beginning and end of a sequence of samples. Analyze the samples via headspace GC-MS. Integrate all peaks in the resulting chromatogram that have a signal greater than five times the root-mean-square baseline noise. Once a satisfactory separation of the volatiles is achieved, mass spectral analysis and/or retention time matching against known compounds is used to identify the compounds detected. Determine the concentration of each calibrated compound in the sample headspace using the linear-least-squares equation from the calibration plot for that compound. Levels of the component in the headspace are reliable to 0.1 ppm by the GC-MS technique.
smiles,measurement,setting,value
"O=C1CC(=O)NC(=O)N1 [B, barbituric acid]",Acetaldehyde Headspace Concentration,[1]; 1 Day,237 ppm
same,Acetone Headspace Concentration,[1]; 1 Day,392 ppm
same,Butyl acetate Headspace Concentration,[1]; 1 Day,1 ppm
same,Ethanol Headspace Concentration,[1]; 1 Day,10 ppm
same,Vinyl acetate Headspace Concentration,[1]; 1 Day,0 ppm
same,butanal Headspace Concentration,[1]; 1 Day,0.4 ppm
same,l-butanol Headspace Concentration,[1]; 1 Day,18 ppm
same,t-butanol Headspace Concentration,[1]; 1 Day,265 ppm
same,Acetaldehyde Headspace Concentration,[1]; 5 Days,140 ppm
same,Acetone Headspace Concentration,[1]; 5 Days,418 ppm
same,Butyl acetate Headspace Concentration,[1]; 5 Days,1 ppm
same,Ethanol Headspace Concentration,[1]; 5 Days,23 ppm
same,Vinyl acetate Headspace Concentration,[1]; 5 Days,0 ppm
same,butanal Headspace Concentration,[1]; 5 Days,0.6 ppm
same,l-butanol Headspace Concentration,[1]; 5 Days,21 ppm
same,t-butanol Headspace Concentration,[1]; 5 Days,285 ppm
same,Acetaldehyde Headspace Concentration,[2],0 ppm
same,Acetone Headspace Concentration,[2],287 ppm
same,Ethanol Headspace Concentration,[2],26 ppm
same,butanal Headspace Concentration,[2],0 ppm
same,l-butanol Headspace Concentration,[2],53 ppm
same,t-butanol Headspace Concentration,[2],300 ppm
"[BH4-].[Na+] [NaBH4, sodium borohydride]","Level of 2-butenoic acid, butyl ester in headspace",[3],65 ppm
same,Level of 2-methyl-3-hexanone in headspace,[3],0 ppm
same,Level of Acetone in headspace,[3],0 ppm
same,Level of Butanal in headspace,[3],0 ppm
same,Level of Isobutyraldehyde in headspace,[3],0 ppm
same,Level of benzaldehyde in headspace,[3],0 ppm
same,Level of butyl acetate in headspace,[3],104 ppm
same,Level of butyl acrylate in headspace,[3],67 ppm
same,Level of butyl propionate in headspace,[3],207 ppm
same,Level of methyl isobutyrate in headspace,[3],17 ppm
